From patent publication US5424328A, “Phenyl-imidazolidinone derivatives” (Farmitalia Carlo Erba S.r.l., priority 1992, dated 1995)

Columns and labels:
5HT3 receptor = target: T1, 5HT3 receptor (Rattus norvegicus, UniProt P35563); experiment: Inhibition of the von Bezold-Jarisch chemoreflex evoked by 5-HT in the anesthetized rat (in vivo 5HT3 antagonist activity); details: 5-HT 20 ug/kg i.v.; for % inhibition of the Bezold-Jarisch reflex: mean ± S.E.M., 6 animals, * p < 0.01 vs controls; for ED50: iv, read-out: ED50 (limits)
T1 construct: in the anesthetized rat; from tissue; host or cells: whole anesthetized rat (in vivo); endogenous receptor
T1 sequence (P35563 24-483): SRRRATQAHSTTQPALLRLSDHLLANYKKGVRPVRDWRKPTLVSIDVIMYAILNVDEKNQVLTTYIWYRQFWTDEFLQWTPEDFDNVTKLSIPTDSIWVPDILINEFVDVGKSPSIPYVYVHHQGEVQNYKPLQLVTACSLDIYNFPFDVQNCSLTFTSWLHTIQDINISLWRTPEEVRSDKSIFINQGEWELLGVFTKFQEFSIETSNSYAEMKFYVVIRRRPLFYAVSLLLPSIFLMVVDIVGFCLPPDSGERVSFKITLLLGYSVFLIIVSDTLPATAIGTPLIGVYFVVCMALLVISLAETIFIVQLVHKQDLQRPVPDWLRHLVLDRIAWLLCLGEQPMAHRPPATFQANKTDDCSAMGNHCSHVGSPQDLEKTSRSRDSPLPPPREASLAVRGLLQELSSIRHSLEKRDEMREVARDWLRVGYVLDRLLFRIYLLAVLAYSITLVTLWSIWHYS
Experimental: Pharmacol. 326, 36-44 (1984).
The following Table I reports the in vivo 5HT3 antagonist activity data obtained in this test for a representative group of compounds of the invention.
Inhibition of the Bezold-Jarisch reflex elicited by 5-HT
(20 ug/kg i.v.) by i.v. FCE-compounds in the anesthetized
Values are mean ± S.E.M. from 6 animals.
*p < 0.01 vs controls (Dunnett's test).

[1] = target: T2, serotonin 5-HT3 receptors (Rattus norvegicus, UniProt P35563); experiment: Affinity for serotonin 5-HT3 receptors in rat entorhinal cortex, radioligand 3H-BRL 43694 binding
T2 construct: in rat entorhinal cortex; from tissue; host or cells: rat entorhinal cortex
T2 sequence (P35563 24-483): T1 sequence (P35563 24-483)
Experimental: The affinity for serotonin 5-HT3 receptors was assessed for instance in rat entorhinal cortex using a selective radioligand 3H-BRL 43694 as described by Nelson and Thomas (1989).
NELSON D. R. and THOMAS D. R., [3H]-BRL 43694 (Granisetron), a specific ligand for 5-HT3 binding sites in rat brain cortical membranes, Biochem. Pharmac., 38, 1693-1695, 1989. The affinity data for a representative group of compounds of the invention are set out in following Table II.

Row | Structure (SMILES) | % inhibition of the Bezold-Jarisch reflex (5HT3 receptor; dose 10 μg/kg i.v.) [%] | % inhibition of the Bezold-Jarisch reflex (5HT3 receptor; dose 30 μg/kg i.v.) [%] | % inhibition of the Bezold-Jarisch reflex (5HT3 receptor; dose 100 μg/kg i.v.) [%] | ED50 (5HT3 receptor) [µg/kg] | IC50 [1] [nM] | % inhibition of the Bezold-Jarisch reflex (5HT3 receptor; dose 3 μg/kg i.v.) [%] | % inhibition of the Bezold-Jarisch reflex (5HT3 receptor; dose 1 μg/kg i.v.) [%] | % inhibition of the Bezold-Jarisch reflex (5HT3 receptor; dose 0.5 μg/kg i.v.) [%] | % inhibition of the Bezold-Jarisch reflex (5HT3 receptor; dose 2 μg/kg i.v.) [%] | % inhibition of the Bezold-Jarisch reflex (5HT3 receptor; dose 8 μg/kg i.v.) [%]
1 | Cc1[nH]cnc1CN1CCN(c2cccc(C#N)c2)C1=O [FCE 28276, 1-(5-methyl-1H-imidazol-4-yl)methyl-3-(3-cyanophenyl)-imidazolidin-2-one] | 14.3 ± 9.2 | 44.5 ± 7.3 | 87.7 ± 7.0 | 32.2 | 11 | – | – | – | – | –
2 | Cc1cc(C)cc(N2CCN(Cc3nc[nH]c3C)C2=O)c1 [FCE 28356, 1-(5-methyl-1H-imidazol-4-yl)methyl-3-(3,5-dimethylphenyl)-imidazolidin-2-one] | – | – | 88.6 ± 2.4 | – | 1.8 | – | – | – | – | –
3 | Cc1[nH]cnc1CN1CCN(c2cccc(Br)c2)C1=O [FCE 28159, 1-(5-methyl-1H-imidazol-4-yl)methyl-3-(3-bromophenyl)-imidazolidin-2-one] | 64.2 ± 5.0 | 84.4 ± 4.2 | – | 6.5 | 2.7 | 30.0 ± 5.9 | – | – | – | –
4 | Cc1[nH]cnc1CN1CCN(c2ccccc2)C1=O [FCE 28277, 1-(5-methyl-1H-imidazol-4-yl)methyl-3-phenyl-imidazolidin-2-one] | 79.4 ± 4.1 | – | – | 3.9 | 14 | 37.4 ± 6.5 | 14.7 ± 3.8 | – | – | –
5 | Cc1[nH]cnc1CN1CCN(c2cc(Cl)cc(Cl)c2)C1=O [FCE 28232, 1-(5-methyl-1H-imidazol-4-yl)methyl-3-(3,5-dichlorophenyl)-imidazolidin-2-one] | – | – | – | 2.2 | 0.42 | – | 18.2 ± 2.4 | 1.5 ± 4.8 | 55.5 ± 7.1 | 88.7 ± 1.8
6 | CSc1cccc(N2CCN(Cc3nc[nH]c3C)C2=O)c1 [FCE 28278, 1-(5-methyl-1H-imidazol-4-yl)methyl-3-(3-methylthiophenyl)-imidazolidin-2-one] | 16.8 ± 8.1 | 54.7 ± 2.3 | 85.8 ± 1.2 | 28.6 | 6.7 | – | – | – | – | –
7 | O=C1N(Cc2c[nH]cn2)CCN1c1ccccc1 [FCE 28307, 1-(1H-imidazol-4-yl)methyl-3-phenyl-imidazolidin-2-one] | – | – | 56.1 ± 10.3 | – | 44 | – | – | – | – | –
8 | Cc1[nH]cnc1CN1CCN(c2cccc(Cl)c2)C1=O [FCE 27733, 1-(5-methyl-1H-imidazol-4-yl)methyl-3-(3-chlorophenyl)-imidazolidin-2-one] | 89.7 ± 1.8 | – | – | 5.26 | 2.1 | 37.8 ± 5.8 | 7.0 ± 6.0 | – | – | –
9 | Cc1cccc(N2CCN(Cc3nc[nH]c3C)C2=O)c1 [FCE 28355, 1-(5-methyl-1H-imidazol-4-yl)methyl-3-(3-methylphenyl)-imidazolidin-2-one] | 83.3 ± 3.5 | – | – | 3.1 | 4 | 51.1 ± 4.3 | 14.6 ± 7.3 | – | – | –
